Tests used:
[1] = evaluation of barrier property (evaporated water quantity, Tewameter); type: in vivo; conditions: inside human forearm, two hours after applying 10 μL; blank = 100%; below 100% = improvement
Protocol: [Evaluation of Barrier Property]
With the volatile oil for external preparations for skin of the present invention, an evaporated water quantity in a stratum corneum was measured by the method shown below, and the evaporated water quantity (barrier property) was evaluated.
(Measuring Equipment) Tewameter™210 (from Courage+Kahazaka Co., Ltd.)
(§1) (Measuring Conditions) Temperature of 20° C., Humidity of 40%
(Testing Method) Samples are applied inside a human forearm, and an evaporated water quantity is measured after two hours.
(§2) (Applying Various Oils and Preparing Tests)
(§3) (1) The measurement site of a subject is washed with neutral detergent and tap water and then dried. The subject goes in the constant temperature and humidity chamber 30 min. before measurement to allow the measurement site to get used to the environment inside the chamber.
(2) Before applying samples, an evaporated water quantity is measured at a site to be applied that is marked in a circle 1 cm in diameter. […]
(4) The evaporated water quantity is measured at the measurement site two hours after being applied.
(Assessment) With the evaporated water quantity at measurement sites with no oil treatment (blanks) as 100%, the evaporated water quantity was evaluated after being treated with each sample. […]

[2] = evaluation of smoothness of skin (MIU friction resistance of skin surface); type: in vivo; conditions: coefficient of friction of skin, inside upper arm, before oil treatment = 100%; below 100% = improvement
Protocol: (§4) [Evaluation of Smoothness]
With the volatile oil for external preparations for skin of the present invention, coefficients of friction were measured by the following method, and the improvement of smoothness when applied to skin was evaluated.
Method of Evaluating Smoothness (Improvement after Treating Skin with Each Sample)
(§5) (Evaluation) MIU (Resistance: μ): Friction resistance of skin surface (Measuring Equipment) Friction tester (from Kato Tech Co., Ltd.) (Measuring Conditions) Measurement environment at 20° C.; 40% of Humidity; Constant temperature and humidity chamber; Measurement site: Inside upper arm; Contactor: Silicon rubber; Load: 25 gf
as §2, §3
(2) Coefficients of friction at sites to be applied are measured before applying samples. […]
(4) After the samples are applied, the coefficients of friction at applied sites are measured every thirty minutes.
(Assessment) With the coefficient of friction at measurement sites before oil treatment as 100%, smoothness was evaluated after being treated with each sample. […]

[3] = order of volatility, sample spread on filter paper and dried; type: physicochemical; conditions: 0.1 g on filter paper of 110 mm diameter; rank by speed to be completely dry (1 = fastest)
Protocol: It is noted that for the order of volatility in Table 1, 0.1 g of each sample was spread on a filter paper of 110 mm in diameter, and the weight was measured after drying for two hours. Ranking was based on the order of the speed that it took the samples to be completely dry and 0 g in weight.

[4] = evaluation of skin viscoelasticity (Cutometer); type: in vivo; conditions: inside human forearm, two hours after applying 10 μL; blank = 100%; above 100% = improvement
Protocol: [Evaluation of Skin Viscoelasticity]
With the volatile oil for external preparations for skin of the present invention, skin viscoelasticity was measured by the method shown below, and the skin viscoelasticity was evaluated.
(Measuring Equipment) Cutometer (from I.B.S. Co., Ltd.)
as §1
(Testing Method) Samples are applied inside a human forearm, and viscoelasticity is measured after two hours.
as §2, §3
(2) Before applying samples, viscoelasticity is measured at a site to be applied that is marked in a circle with 1 cm in diameter.
(3) Samples are dropped by 10 μL with a micropipette onto a measurement site that is marked in a circle with 1 cm in diameter, and are applied, to skin at the marking site.
(4) The viscoelasticity is measured at the measurement site two hours after being applied.
(Assessment) With the […] at measurement sites with no oil treatment (blanks) as 100%, skin viscoelasticity was evaluated after being treated with each sample. […]

[5] = evaluation of moisture retention (amount of moisture in stratum corneum, SKICON-200EX); type: in vivo; conditions: inside human forearm, two hours after applying 10 μL; blank = 100%; above 100% = improvement
Protocol: [Evaluation of Moisture Retention]
With the volatile oil for external preparations for skin of the present invention, the amount of moisture in a stratum corneum was measured by the method shown below, and the amount of moisture (moisture retention) was evaluated.
(Measuring Equipment) SKICON-200EX (from I.B.S. Co., Ltd.)
as §1
(Testing Method) Samples are applied inside a human forearm, and the amount of moisture is measured after two hours.
as §2, §3
(2) Before applying samples, the amount of moisture is measured at a site to be applied that is marked in a circle 1 cm in diameter.
(3) Samples are dropped by 10 μL with a micropipette onto a measurement site that is marked in a circle with 1 cm in diameter, and are applied to skin at the marking site.
(4) The amount of moisture is measured at the measurement site two hours after being applied.
(Assessment) With the amount of water at measurement sites with no oil treatment (blanks) as 100%, the amount of moisture was evaluated after being treated with each sample. […]

hair tensile strength = conditions: breaking load of healthy human hair, untreated with oil (blank) = 100%; above 100% = improvement; 25° C.
Protocol: (Measuring Equipment) FUDOH RHEO METER RTC from Rheotech Co., Ltd. (Measuring Condition) Measurement environment: Inside constant temperature chamber at 25° C.
(Hair Employed) Healthy Human Hair
as §2
Beforehand, a bundle of unbleached healthy hair for measurement is placed in a constant temperature chamber for one day.
(§6) (1) One hair is picked out of the bundle of human hair. Each sample is dropped onto an index finger cushion from a syringe, and is blended with a thumb.
(§7) (2) The picked hair is pinched between the index finger and the thumb, and is coated with a sample from its root to the end.
(3) After the sample is coated, excess oil is wiped off with a waste cloth made of paper (Trade Name: Kim Wipes).
(4) After ten human hairs are treated with each sample, hair diameter is measured with a diameter.
(5) The hair is fixed with a jag of an equipment, and is given a load by lowering a base onto which the hair is fixed.
(6) The load is recorded when the hair is broken by the load.
(Assessment) With the tensile strength of hair untreated with oil (blank) as 100%, tensile strength was evaluated after being treated with each sample. If there is an improvement in comparison with the blank, the number would be higher than 100%.

[6] = evaluation of smoothness of hair (MIU friction resistance of hair surface); set-up: species or system human; conditions: coefficient of friction of bleached hair, hair untreated with oil = 100%; below 100% = improvement; 20° C., 40% humidity
Protocol: as §4
With the volatile oil for hair cosmetics of the present invention, coefficients of friction were measured by the method shown below, and the improvement of smoothness, when applied to hair, was evaluated.
Method of Evaluating Smoothness (Improvement after Treating Bleached Hair with Each Sample)
as §5, with “hair” for “skin”, “Number of hair for measurement: ten;” for “Measurement site: Inside upper arm;”, “gf (Hair Employed) Bleached healthy human hair that was purchased” for “gf”
as §2, §6, §7
(3) After the sample is coated, excess sample is wiped off with a waste cloth made of paper (Trade Name: Kim Wipes). […]
(Assessment) With the coefficient of friction of hair untreated with oil as 100%, smoothness is evaluated after being treated with each sample. […]

SMILES	evaporated water quantity (%) [1] [%]	smoothness (%) [2] [%]	order of volatility [3]	skin viscoelasticity (%) [4] [%]	water quantity in stratum corneum (%) [5] [%]	tensile strength (%) (hair tensile strength)	smoothness (%) [6] [%]
C[Si]1(C)O[Si](C)(C)O[Si](C)(C)O[Si](C)(C)O[Si](C)(C)O1 [compound 1]	106	108	3	95	120	120	83
CC(CC(C)(C)C)CC(C)(C)C [compound 2, 2,2,4,6,6-pentamethylheptane]	105	104	1	97	112	125	78

Reference: US20150150765A1, “VOLATILE OIL FOR COSMETICS” (NOF Corporation, priority 2012, published 2015)
